US20050095240A1, “NaCT as a target for lifespan expansion and weight reduction” (Medical College of Georgia Research, priority 2002, published 2005)
Where two headings read alike, the source gives them in different places.

Columns and labels:
rat NaCT = target: T1, rat NaCT (Rattus norvegicus, UniProt Q8CJ44); test: Uptake via rat NaCT expressed in HRPE cells; format: cell-based; conditions: for [^14C]Citrate uptake (cDNA-specific) / [^14C]Citrate uptake, %: [14C]citrate 14 μM, unlabeled compound 2.5 mM; for [^14C]Citrate uptake, %: none = 100; for Uptake in rat NaCT cDNA-transfected cells vs vector alone: succinate 80 nM, pyruvate 135 μM, citrate 35 μM, Na+ gradient
T1 sequence (Q8CJ44 1-572): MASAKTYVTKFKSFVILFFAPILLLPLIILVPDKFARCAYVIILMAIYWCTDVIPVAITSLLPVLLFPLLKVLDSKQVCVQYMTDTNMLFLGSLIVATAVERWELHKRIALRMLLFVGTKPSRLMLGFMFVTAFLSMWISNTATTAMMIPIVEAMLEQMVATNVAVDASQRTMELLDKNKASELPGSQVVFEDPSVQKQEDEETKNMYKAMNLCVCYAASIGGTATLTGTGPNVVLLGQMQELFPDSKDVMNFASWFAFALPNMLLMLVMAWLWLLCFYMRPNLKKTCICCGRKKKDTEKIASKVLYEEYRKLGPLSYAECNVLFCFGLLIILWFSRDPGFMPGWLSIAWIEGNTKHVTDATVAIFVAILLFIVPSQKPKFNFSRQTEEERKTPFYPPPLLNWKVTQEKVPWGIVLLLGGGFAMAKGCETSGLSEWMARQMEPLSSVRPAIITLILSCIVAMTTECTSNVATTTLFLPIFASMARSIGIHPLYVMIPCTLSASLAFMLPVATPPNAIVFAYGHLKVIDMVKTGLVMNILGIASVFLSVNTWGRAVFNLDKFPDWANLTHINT

hNaDC3 = target: T2, hNaDC3 (Homo sapiens, UniProt Q8WWT9)
T2 sequence (Q8WWT9 1-602): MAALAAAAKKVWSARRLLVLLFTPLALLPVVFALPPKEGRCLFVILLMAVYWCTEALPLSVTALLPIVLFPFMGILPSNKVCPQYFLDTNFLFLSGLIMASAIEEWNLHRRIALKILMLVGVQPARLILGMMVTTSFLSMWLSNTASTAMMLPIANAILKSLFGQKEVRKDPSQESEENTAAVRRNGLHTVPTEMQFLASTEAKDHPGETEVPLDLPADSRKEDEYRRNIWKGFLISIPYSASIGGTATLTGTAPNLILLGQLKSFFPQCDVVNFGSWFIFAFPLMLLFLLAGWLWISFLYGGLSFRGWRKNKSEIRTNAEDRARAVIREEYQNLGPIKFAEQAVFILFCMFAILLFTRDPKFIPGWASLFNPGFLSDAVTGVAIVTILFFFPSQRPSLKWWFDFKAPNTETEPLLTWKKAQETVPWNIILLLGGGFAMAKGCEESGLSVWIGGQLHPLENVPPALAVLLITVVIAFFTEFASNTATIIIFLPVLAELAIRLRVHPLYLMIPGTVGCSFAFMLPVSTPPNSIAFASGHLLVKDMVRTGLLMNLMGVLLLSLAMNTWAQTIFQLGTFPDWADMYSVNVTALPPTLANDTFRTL

human NaCT = human NaCT (Homo sapiens, UniProt Q86YT5); test: Uptake via human NaCT expressed in HRPE cells; format: cell-based; conditions: for [^14C]-Citrate Uptake (cDNA-specific) / [^14C]-Citrate Uptake, %: [14C]-citrate 20 μM, unlabeled compound 2.5 mM; for [^14C]-Citrate Uptake, %: none = 100
mouse NaCT = target: T3, mouse NaCT (Mus musculus, UniProt Q67BT3); test: Transport via mouse NaCT expressed in HRPE cells; format: cell-based; conditions: for [^3H]-Succinate transport (NaCT-specific) / [^3H]-Succinate transport, %: [3H]-succinate 0.1 μM; for [^3H]-Succinate transport (NaCT-specific) / [^3H]-Succinate transport, % / [^14C]-Citrate transport (NaCT-specific) / [^14C]-Citrate transport, %: substrate analog 2 mM; for [^3H]-Succinate transport, % / [^14C]-Citrate transport, %: control = 100; for [^14C]-Citrate transport (NaCT-specific) / [^14C]-Citrate transport, %: [14C]-citrate 10 μM
T3 sequence (Q67BT3 1-572): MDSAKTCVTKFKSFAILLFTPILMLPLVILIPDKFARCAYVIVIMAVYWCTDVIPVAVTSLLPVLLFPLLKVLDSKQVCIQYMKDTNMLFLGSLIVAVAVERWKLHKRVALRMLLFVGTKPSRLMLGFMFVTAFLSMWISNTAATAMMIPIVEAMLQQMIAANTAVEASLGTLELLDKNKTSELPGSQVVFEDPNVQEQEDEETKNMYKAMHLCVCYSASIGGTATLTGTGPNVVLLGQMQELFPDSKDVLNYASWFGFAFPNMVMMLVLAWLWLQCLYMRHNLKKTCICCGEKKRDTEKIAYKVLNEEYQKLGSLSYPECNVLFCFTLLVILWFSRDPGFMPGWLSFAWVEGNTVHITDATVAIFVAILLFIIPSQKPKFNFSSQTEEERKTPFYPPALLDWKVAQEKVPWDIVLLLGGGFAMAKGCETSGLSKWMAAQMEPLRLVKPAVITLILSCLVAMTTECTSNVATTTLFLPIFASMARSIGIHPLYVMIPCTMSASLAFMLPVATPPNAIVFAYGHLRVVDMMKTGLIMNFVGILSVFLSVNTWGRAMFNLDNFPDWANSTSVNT

ceNaCT = target: T4, ceNaCT (Caenorhabditis elegans, UniProt P32739, I91S/L182M); test: Uptake via ceNaCT expressed in HRPE cells; conditions: for Competition with [^14C]citrate for ceNaCT-mediated uptake: competitor 2.5 mM, [14C]citrate 15 μM
T4 sequence (P32739 1-551 I91S/L182M): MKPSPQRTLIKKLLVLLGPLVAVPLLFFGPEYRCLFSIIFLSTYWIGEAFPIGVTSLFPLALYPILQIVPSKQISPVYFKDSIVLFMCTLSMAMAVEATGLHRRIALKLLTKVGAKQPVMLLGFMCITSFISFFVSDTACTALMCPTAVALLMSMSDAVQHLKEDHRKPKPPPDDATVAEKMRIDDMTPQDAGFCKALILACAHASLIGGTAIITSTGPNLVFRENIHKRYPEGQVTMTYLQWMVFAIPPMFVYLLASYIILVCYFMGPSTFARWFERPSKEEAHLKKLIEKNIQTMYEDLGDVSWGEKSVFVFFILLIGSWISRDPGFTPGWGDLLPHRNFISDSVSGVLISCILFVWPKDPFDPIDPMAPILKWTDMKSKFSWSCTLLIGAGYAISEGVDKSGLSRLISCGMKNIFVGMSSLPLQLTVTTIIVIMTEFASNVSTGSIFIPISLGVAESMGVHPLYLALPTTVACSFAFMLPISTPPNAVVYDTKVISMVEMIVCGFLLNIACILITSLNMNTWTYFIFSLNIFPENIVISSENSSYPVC

zebrafish NaCT = zebrafish NaCT (Danio rerio, UniProt A0A2R8QQN0, K78Q); test: Citrate uptake via zebrafish NaCT expressed in HRPE cells; format: cell-based
drIndy = drIndy (Drosophila melanogaster, UniProt Q9VVT2); conditions: for % Control of cDNA-specific [^3H]succinate uptake / cDNA-specific [^3H] succinate uptake: [3H]succinate 40 nM, inhibitor 2.5 mM; for cDNA-specific [^3H] succinate uptake: NaCl buffer pH 7.5; for Uptake in drIndy cDNA-transfected cells vs vector alone / Succinate uptake mediated by drIndy: succinate 40 nM
[1] = presence of Na+, citrate 35 μM, pyruvate 135 μM

Sequence of zebrafish NaCT (A0A2R8QQN0 2-582 K78Q): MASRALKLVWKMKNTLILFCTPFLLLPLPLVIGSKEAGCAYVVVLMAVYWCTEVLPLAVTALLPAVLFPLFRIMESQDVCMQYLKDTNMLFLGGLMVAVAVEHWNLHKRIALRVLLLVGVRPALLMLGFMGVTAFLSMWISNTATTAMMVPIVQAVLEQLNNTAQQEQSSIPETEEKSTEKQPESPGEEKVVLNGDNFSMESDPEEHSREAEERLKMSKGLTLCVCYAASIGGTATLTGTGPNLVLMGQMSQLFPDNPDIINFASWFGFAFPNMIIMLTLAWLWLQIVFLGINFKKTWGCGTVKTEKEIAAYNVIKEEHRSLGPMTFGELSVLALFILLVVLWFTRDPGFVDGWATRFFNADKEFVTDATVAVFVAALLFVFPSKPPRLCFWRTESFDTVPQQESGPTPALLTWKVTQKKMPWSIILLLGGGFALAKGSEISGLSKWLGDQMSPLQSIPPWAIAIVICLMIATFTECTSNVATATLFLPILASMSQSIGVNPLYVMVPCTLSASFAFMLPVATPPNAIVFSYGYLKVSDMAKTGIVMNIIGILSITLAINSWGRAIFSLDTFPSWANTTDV
Sequence of human NaCT (Q86YT5 whole entry): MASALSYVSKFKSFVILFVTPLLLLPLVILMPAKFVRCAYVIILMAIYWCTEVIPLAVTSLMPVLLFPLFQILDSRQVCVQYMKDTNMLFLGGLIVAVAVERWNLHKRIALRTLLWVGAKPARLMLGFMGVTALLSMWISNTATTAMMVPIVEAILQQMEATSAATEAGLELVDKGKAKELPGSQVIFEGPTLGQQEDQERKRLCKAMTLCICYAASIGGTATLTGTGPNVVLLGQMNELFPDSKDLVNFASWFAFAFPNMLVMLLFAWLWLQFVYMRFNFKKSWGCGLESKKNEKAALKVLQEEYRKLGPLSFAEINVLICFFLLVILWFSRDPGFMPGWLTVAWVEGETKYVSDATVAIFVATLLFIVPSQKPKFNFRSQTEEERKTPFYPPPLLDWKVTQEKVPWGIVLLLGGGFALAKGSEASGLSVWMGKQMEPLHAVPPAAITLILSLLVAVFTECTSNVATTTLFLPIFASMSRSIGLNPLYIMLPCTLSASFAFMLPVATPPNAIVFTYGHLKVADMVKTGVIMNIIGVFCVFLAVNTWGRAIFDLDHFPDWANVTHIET
Sequence of drIndy (Q9VVT2 19-590): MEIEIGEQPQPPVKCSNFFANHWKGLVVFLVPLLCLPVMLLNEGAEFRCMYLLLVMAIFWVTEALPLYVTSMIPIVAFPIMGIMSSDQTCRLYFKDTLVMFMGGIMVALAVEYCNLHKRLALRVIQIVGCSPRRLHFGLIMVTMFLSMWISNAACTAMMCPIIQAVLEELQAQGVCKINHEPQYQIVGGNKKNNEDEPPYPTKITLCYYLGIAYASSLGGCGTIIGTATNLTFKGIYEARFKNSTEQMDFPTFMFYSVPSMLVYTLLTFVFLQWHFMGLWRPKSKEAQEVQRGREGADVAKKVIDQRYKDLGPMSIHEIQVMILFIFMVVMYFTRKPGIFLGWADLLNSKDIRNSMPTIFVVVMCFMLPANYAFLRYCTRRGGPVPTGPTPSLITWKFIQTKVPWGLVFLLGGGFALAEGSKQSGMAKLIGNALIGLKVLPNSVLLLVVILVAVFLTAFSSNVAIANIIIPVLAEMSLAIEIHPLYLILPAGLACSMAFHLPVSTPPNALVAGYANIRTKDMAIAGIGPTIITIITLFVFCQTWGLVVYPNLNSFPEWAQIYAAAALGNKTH

| Structure (SMILES) | IC50 (rat NaCT) [µM] | Ki (rat NaCT) [µM] | [^14C]Citrate uptake (cDNA-specific) (rat NaCT) [Pmol/10^6 cells/min] | [^14C]Citrate uptake, % (rat NaCT) [%] | Uptake in rat NaCT cDNA-transfected cells vs vector alone (rat NaCT) | IC50 (human NaCT) [µM] | [^14C]-Citrate Uptake (cDNA-specific) (human NaCT) [pmol/10^6 cells/min] | [^14C]-Citrate Uptake, % (human NaCT) [%] | Maximal velocity (Vmax) (mouse NaCT) [pmol/10^6 cells/min] | Michaelis-Menten constant (Kt) for transport via mouse NaCT (mouse NaCT) [µM] | [^3H]-Succinate transport (NaCT-specific) (mouse NaCT) [pmol/10^6 cells/min] | [^3H]-Succinate transport, % (mouse NaCT) [%] | [^14C]-Citrate transport (NaCT-specific) (mouse NaCT) [pmol/10^6 cells/min] | [^14C]-Citrate transport, % (mouse NaCT) [%] | Transport in mouse NaCT cDNA-transfected cells vs vector alone (mouse NaCT; succinate 50 nM, citrate 20 μM) [fold] | Competition with [^14C]citrate for ceNaCT-mediated uptake (ceNaCT) | Vmax for transport via ceNaCT (ceNaCT; pH 7.5) [pmol/10^6 cells/min] | IC50 (zebrafish NaCT) [µM] | % Control of cDNA-specific [^3H]succinate uptake (drIndy) [%] | cDNA-specific [^3H] succinate uptake (drIndy) [fmol/106 cells per min] | further results |
| --- | --- | --- | --- | --- | --- | --- | --- | --- | --- | --- | --- | --- | --- | --- | --- | --- | --- | --- | --- | --- | --- |
| O=C(O)CC(O)(CC(=O)O)C(=O)O [Citrate] | 28 ± 4 | 16 ± 2 | 1.5 ± 0.1 | 1 | approximately 90 fold | 688 ± 150 | 7.7 ± 0.7 | 16 | 118±6 | 22 ± 2 | 0.004 ± 0.001 | 3 | 0.7 ± 0.1 | 2 | 20.2 | potent inhibitor | 270±13 | 30 ± 4 | 13 | 18.6 ± 3.0 | Kt (Michaelis-Menten constant) for citrate uptake via rat NaCT (rat NaCT): 18 ± 4 µM; Lower affinity of hNaDC3 than drIndy for citrate (hNaDC3): 20 fold; Kt for citrate via human NaCT in the presence of Li+ (human NaCT; 10 mM Li+): 95 ± 15 µM; Uptake in human NaCT cDNA-transfected cells vs vector alone (human NaCT; citrate 20 μM, NaCl): about 23 fold; Affinity of human NaCT for citrate less than that of rat NaCT (human NaCT; identical assay conditions): about 30 fold; Kt (Michaelis-Menten constant) for citrate uptake via human NaCT (human NaCT; wild type, absence of Li+): 604 ± 73 µM; Transport of citrate in cDNA-transfected cells (mouse NaCT; citrate 20 μM): 48.4±1.0 pmol/10^6 cells/min; Uptake in ceNaCT-expressing cells vs vector-transfected control cells (ceNaCT; [14C]citrate 10 μM, Na+, pH 7.5): approximately 45 fold; Uptake of [^14C]citrate in cells expressing ceNaCT (ceNaCT; citrate 10 μM, Na+, pH 7.5): 61±5 pmol/10^6 Cells/min; Km (zebrafish NaCT; read-out: Michaelis constant for citrate uptake, hrpe cells, 30 min): 40 ± 4 µM; Uptake in drIndy cDNA-transfected cells vs vector alone (drIndy; [1]): approximately 30 fold |
| O=C(O)CCC(=O)O [Succinate, succinate] | 172 ± 24 | 98 ± 14 | 5.7 ± 0.2 | 5 | about 7 fold | 1920 ± 480 | 32.1 ± 3.6 | 67 | 80±5 | 33 ± 4 | 0.007 ± 0.003 | 5 | 0.1 ± 0.1 | 1 | 7.8 | inhibited markedly | 210±8 | 51 ± 9 | 6 | 4.6 ± 0.4 | Affinity of rat NaCT for succinate lower than for citrate (rat NaCT): 6 fold; Succinate uptake at physiological concentrations (rat NaCT; medium with 135 μM citrate and 40 μM succinate): 0.005±0.001 nmol/10^6 cells/minute; Uptake in hNaDC3 cDNA-transfected cells vs vector (hNaDC3; succinate 40 nM, presence of Na+): 200 fold; Transport of succinate in cDNA-transfected cells (mouse NaCT; succinate 50 nM): 42.7±4.6 fmol/10^6 cells/min; Km (ceNaCT; read-out: Michaelis-Menten constant (Kt) for transport via ceNaCT, pH 7.5, 30 min): 88 ± 13 µM; Uptake in drIndy cDNA-transfected cells vs vector alone (drIndy; absence of Na+): 15 fold; Uptake in drIndy cDNA-transfected cells vs vector alone (drIndy; [1]): 20 fold; Km (drIndy; read-out: Michaelis-Menten constant (Km) for transport via drIndy, presence of Na+): 40 ± 4 µM; Succinate uptake mediated by drIndy (drIndy; pH 5): 52±2 fmol/10^6 cells per minute; Succinate uptake mediated by drIndy (drIndy; pH 8): 127±5 fmol/10^6 cells per minute |
